Test results published in ChEMBL document CHEMBL1201862, “PubChem BioAssay data set” (2004).
The source made the active and inactive calls.

Assays:
[1] = HIV-1 Vif–A3G interaction blockers – biochemical, TR-FRET, GST-Vif 1-94, biotin-A3G peptide, dose response retest, primary screen (AID 1117319); assay type: functional;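 also: TR-FRET signal of purified GST-Vif binding a biotinylated A3G peptide; inhibitors lower the FRET signal by blocking Vif and A3G binding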
[2] = growth inhibition of yeast DHODH-expressing 3D7 parasites – SYBR Green, dry powder samples, dose response (AID 1159570); assay type: functional, cell-based;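 also: parasite growth measured after 72 hours of compound exposure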
[3] = growth inhibition of PfATP4-mutant resistant parasites – NITD609-resistant line, SYBR Green, dry powder, dose response (AID 1159571); assay type: functional, cell-based;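 also: parasites synchronized at ring stage by sorbitol before testing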
[4] = Dd2 malaria parasite growth inhibition potency – SYBR Green, dry powder samples, dose response (AID 1159566); assay type: functional, cell-based;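 also: potency for growth inhibition with lower SYBR green DNA signal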
[5] = P. falciparum Dd2 growth inhibitors, dose response, SYBR Green, cherry-picked samples (AID 1159567); assay type: functional, cell-based
[6] = target: T1, Heat shock factor protein 1 (Mus musculus, UniProt P38532); assay: enhancement of HSF1-driven luciferase signal – cell-based, NIH3T3, luminescence, dose retest, confirmation (AID 435004); assay type: functional;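 also: stress induced by proteasome inhibitor MG132 added 30 min after compound; luciferase reporter driven by HSF1 response element in NIH3T3 cells; actives raise luminescence as potentiators of the MG132 stress response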
T1 sequence (P38532 whole entry): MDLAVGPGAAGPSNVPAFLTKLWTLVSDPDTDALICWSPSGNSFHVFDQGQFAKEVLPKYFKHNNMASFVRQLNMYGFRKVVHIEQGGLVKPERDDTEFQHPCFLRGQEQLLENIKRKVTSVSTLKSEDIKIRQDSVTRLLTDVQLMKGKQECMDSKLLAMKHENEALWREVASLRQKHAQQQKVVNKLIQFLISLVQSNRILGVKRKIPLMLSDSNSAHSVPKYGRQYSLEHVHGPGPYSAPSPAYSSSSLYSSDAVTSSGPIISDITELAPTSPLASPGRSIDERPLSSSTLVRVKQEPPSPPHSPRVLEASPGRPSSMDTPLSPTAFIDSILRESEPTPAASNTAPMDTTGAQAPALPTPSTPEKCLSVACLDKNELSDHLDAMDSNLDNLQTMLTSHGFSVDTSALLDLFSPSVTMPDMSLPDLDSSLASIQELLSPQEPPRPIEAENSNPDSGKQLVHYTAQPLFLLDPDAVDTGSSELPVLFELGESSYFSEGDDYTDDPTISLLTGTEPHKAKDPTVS

[7] = viability loss in HEK293 cells – cell-based, plate reader, cherry-picked samples, cytotoxicity control, dose response (AID 743446); assay type: functional
[8] = A549 cell cytotoxicity, dose response, cytotoxicity control, plate reader, cherry-pick, antagonist series (AID 743412); assay type: functional, cell-based
[9] = blockers of bursicon-stimulated LGR2 cAMP reporter – cell-based, HEK293, CRE-luciferase reporter, cherry pick, set 2, dose response (AID 743343); assay type: functional;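 also: transfected cells were stimulated with diluted bursicon conditioned medium after compound addition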
[10] = target: Induced myeloid leukemia cell differentiation protein Mcl-1 (Homo sapiens, UniProt Q07820); assay type: functional
Induced myeloid leukemia cell differentiation protein Mcl-1, sequence (Q07820 whole entry): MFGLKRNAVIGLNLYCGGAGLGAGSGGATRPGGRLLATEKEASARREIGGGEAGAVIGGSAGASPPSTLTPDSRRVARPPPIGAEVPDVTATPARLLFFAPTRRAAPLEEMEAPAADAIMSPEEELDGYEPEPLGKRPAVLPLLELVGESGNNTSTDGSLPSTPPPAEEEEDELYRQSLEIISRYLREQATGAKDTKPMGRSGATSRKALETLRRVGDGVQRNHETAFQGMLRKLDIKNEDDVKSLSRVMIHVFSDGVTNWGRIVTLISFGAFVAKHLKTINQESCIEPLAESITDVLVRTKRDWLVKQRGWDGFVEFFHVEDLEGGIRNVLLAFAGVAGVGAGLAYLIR

[11] = NIH3T3 cell viability loss – ATP luminescence, mouse fibroblasts, counter-screen, dose response (AID 2010); assay type: functional, cell-based;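 also: cells exposed to compound for about 90 hours before reading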
[12] = Trypanosoma cruzi growth suppression in host cells – NIH3T3 host cells, beta-gal luminescence, confirmation (AID 2044); assay type: functional, cell-based;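 also: intracellular parasites grown in NIH/3T3 mouse fibroblasts as host cells; luminescent beta-galactosidase reporter signal from transgenic T. cruzi replicating inside host cells; inhibitors lower the luminescence signal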
Prothrombin = Prothrombin (Homo sapiens, UniProt P00734); assay: Thrombin 1536 HTS Dose Response Confirmation. [Related pubchem assays: 1046 (Thrombin 1536 HTS; hits were confirmed in this assay)]; assay type: functional
[13] = target: Luciferin 4-monooxygenase (Photinus pyralis, UniProt P08659); assay: inhibition of purified Photinus pyralis luciferase – biochemical, luminescence, dose response (AID 1891)
Luciferin 4-monooxygenase, sequence (P08659 whole entry): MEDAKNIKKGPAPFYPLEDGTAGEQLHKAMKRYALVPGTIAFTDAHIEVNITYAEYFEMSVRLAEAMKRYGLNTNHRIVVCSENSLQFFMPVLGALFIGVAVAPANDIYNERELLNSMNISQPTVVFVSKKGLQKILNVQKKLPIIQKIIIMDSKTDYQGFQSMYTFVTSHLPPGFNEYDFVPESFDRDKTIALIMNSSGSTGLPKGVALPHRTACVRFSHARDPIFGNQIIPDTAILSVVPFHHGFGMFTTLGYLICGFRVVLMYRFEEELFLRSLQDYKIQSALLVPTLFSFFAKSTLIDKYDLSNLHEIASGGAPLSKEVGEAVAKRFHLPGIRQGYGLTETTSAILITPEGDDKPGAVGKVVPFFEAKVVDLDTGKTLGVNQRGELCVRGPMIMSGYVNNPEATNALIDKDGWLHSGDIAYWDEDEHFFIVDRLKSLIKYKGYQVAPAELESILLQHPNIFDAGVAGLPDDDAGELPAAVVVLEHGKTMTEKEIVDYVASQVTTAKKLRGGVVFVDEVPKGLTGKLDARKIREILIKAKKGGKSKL

Kallikrein-7 = Kallikrein-7 (Homo sapiens, UniProt P49862); assay: Fluorescence Intensity-based biochemical primary high throughput dose response assay to identify activators of kallikrein-7 (K7) zymogen.
Kallikrein-7, sequence (P49862 whole entry): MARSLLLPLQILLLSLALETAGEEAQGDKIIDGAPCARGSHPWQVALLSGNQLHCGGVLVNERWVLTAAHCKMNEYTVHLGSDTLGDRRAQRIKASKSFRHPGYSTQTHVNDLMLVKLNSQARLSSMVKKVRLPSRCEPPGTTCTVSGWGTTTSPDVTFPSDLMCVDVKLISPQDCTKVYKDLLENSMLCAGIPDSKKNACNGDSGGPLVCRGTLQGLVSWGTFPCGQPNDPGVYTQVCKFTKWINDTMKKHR

[14] = target: T2, Small ubiquitin-related modifier 1 (Homo sapiens, UniProt P63165); assay: SUMO1 protein interaction blockers, potency – biochemical, fluorescence polarization, uHTS hits, dose response (AID 624382); assay type: functional; conditions: read-out: IC50_Mean
T2 sequence (P63165 whole entry): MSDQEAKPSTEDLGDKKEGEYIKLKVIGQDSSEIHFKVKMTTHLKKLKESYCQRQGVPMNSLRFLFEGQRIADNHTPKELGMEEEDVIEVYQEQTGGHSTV

[15] = Luminescence Cell-Based Dose Retest to Confirm Inhibitors of Cancer Stem Cells. [Related pubchem assays (depositor defined):AID2717, AID2721]; assay type: functional; conditions: Homo sapiens
[16] = target: T2, Small ubiquitin-related modifier 1; assay: SUMO1 protein-protein binding blockers, potency – biochemical, FRET, dose response (AID 624383); assay type: functional; conditions: read-out: IC50_Mean
[17] = Luminescence Cell-Based Dose Confirmation HTS to Identify Inhibitors of Platelet Dense Granule Release. [Related pubchem assays: 1663 (Primary HTS), 1678 (Summary of Project)]; assay type: functional
[18] = target: T3, Mannose-6-phosphate isomerase (Homo sapiens, UniProt P34949); assay: MPI enzyme activity inhibition – biochemical, fluorescence intensity, coupled assay, primary screen (AID 1209)
T3 sequence (P34949 whole entry): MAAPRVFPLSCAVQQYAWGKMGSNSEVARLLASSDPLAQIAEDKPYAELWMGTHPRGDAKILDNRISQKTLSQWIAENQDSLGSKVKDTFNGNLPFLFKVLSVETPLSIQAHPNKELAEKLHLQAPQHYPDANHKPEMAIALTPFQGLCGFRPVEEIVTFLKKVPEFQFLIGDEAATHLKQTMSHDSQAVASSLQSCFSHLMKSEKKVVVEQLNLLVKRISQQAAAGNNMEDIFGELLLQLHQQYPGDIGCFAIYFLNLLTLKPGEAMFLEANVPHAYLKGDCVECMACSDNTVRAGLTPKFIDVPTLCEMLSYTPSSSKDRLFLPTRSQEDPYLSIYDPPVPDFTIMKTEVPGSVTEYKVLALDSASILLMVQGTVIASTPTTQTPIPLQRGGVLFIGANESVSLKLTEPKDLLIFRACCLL

Protein skinhead-1 = target: T4, Protein skinhead-1 (Caenorhabditis elegans, UniProt P34707); assay type: functional
T4 sequence (P34707 whole entry): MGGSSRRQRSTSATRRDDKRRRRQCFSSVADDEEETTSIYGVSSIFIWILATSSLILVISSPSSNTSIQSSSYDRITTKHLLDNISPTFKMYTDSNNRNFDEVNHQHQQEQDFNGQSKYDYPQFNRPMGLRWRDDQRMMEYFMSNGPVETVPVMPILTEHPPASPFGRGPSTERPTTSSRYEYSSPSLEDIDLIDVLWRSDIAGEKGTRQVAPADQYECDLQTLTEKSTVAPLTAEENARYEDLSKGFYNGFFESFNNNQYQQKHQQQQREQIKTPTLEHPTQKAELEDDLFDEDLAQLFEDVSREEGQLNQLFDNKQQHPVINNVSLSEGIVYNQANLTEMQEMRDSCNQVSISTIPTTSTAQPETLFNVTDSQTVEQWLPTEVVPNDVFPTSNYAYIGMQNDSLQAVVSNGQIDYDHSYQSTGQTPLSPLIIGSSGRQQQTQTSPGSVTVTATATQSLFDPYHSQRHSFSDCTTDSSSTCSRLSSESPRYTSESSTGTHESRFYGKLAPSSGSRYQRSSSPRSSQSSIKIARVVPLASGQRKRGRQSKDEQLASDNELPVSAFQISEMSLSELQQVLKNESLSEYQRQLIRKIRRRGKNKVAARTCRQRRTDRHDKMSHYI

[19] = blockade of melanocortin 4 receptor signaling – cell-based, plate reader, cherry pick, counter-screen for LGR2 antagonist project, dose response (AID 743444); assay type: functional;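 also: transfected HEK 293 cells stimulated with alpha-MSH peptide; potency of inhibitors of the alpha-MSH evoked signal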
Estrogen receptor beta [20] = target: T5, Estrogen receptor beta (Homo sapiens, UniProt Q92731);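 also: recombinant ER-beta bound to coactivator SRC1 peptide in presence of estradiol agonist; inhibitors block coactivator peptide binding and lower the FRET signal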
T5 sequence (Q92731 whole entry): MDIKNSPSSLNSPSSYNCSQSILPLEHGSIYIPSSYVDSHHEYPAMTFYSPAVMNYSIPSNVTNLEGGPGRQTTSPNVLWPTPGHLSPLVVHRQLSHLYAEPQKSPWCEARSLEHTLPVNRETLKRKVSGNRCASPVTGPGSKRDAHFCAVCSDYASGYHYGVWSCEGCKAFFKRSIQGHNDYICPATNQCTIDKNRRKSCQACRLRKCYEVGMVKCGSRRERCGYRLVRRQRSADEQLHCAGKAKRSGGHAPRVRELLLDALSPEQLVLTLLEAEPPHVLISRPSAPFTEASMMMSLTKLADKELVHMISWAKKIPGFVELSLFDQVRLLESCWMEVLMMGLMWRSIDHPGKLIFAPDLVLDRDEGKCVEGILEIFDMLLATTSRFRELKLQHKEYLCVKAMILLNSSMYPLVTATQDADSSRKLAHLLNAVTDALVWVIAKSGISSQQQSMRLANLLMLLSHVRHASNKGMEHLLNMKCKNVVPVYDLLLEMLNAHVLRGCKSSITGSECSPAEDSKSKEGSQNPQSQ

Estrogen receptor beta [21] = target: T5, Estrogen receptor beta; assay: blockers of SRC-3 recruitment to ERβ – biochemical, ELISA, streptavidin-HRP readout, orthogonal assay, confirmation (AID 1060)
[22] = target: T6, Carboxy-terminal domain RNA polymerase II polypeptide A small phosphatase 1 (Homo sapiens, UniProt Q9GZU7); assay: CTDSP1 inhibitors, concentration-response, biochemical, absorbance readout, ultra-high-throughput screen actives (AID 540297); assay type: functional
T6 sequence (Q9GZU7 whole entry): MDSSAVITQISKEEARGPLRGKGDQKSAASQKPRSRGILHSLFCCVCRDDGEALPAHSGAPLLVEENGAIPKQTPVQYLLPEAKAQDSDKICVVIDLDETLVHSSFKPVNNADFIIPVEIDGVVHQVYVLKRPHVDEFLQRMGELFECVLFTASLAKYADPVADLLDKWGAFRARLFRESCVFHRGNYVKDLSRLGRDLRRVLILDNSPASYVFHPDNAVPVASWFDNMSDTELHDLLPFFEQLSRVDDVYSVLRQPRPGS

Estrogen receptor = target: T7, Estrogen receptor (Homo sapiens, UniProt P03372);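 also: potency for inhibiting coactivator peptide recruitment to the receptor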
T7 sequence (P03372 whole entry): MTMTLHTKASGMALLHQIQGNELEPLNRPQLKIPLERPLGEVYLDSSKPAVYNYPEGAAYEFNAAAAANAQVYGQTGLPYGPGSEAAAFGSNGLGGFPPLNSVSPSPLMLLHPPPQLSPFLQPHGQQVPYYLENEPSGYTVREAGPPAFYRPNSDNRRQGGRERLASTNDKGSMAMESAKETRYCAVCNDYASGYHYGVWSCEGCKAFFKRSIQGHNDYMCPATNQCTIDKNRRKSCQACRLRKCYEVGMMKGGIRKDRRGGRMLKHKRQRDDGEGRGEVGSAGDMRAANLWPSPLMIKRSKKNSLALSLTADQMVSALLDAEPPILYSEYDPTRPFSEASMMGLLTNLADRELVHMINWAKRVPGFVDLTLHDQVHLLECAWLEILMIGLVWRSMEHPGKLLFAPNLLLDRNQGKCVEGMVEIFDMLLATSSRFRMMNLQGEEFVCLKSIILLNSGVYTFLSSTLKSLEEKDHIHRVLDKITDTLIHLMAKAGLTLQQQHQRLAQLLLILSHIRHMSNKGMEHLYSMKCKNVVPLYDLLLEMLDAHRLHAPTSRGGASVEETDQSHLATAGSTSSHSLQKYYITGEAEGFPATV

[23] = target: T8, Low molecular weight phosphotyrosine protein phosphatase (Homo sapiens, UniProt P24666); assay type: functional; conditions: read-out: IC50_Mean
T8 sequence (P24666 whole entry): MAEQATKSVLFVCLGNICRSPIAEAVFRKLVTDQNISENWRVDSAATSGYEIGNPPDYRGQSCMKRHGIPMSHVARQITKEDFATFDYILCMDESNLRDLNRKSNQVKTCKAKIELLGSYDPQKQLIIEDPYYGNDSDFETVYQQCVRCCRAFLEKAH

H4 = assay: Luminescence Cell-Based Dose Response HTS to Identify Activators of 5'UTR Stem-Loop Driven Prion Protein mRNA Translation in H4 Neuroglioblastoma Cells. [Related pubchem assays: 1829 (Project Summary), 1814 (Primary HTS)]; assay type: functional; conditions: Homo sapiens
[24] = target: T8, Low molecular weight phosphotyrosine protein phosphatase; assay type: functional; conditions: read-out: IC50_Mean; remark: listed apart in the source

Structure (SMILES): CN1C(=O)CC(N2CCN(C(=O)c3ccccc3)CC2)C1=O (configuration not stated)
- IC50 [1]: > 100 µM (active)

Structure (SMILES): COCC#Cc1ccc(CC[C@H]2O[C@H]3CC[C@H](CO)O[C@H]3C[C@@H]2n2cc(C3CC3)nn2)cc1
- AC50 [2]: 3.37 µM (active)
- AC50 [3]: 3.76 µM (active)
- AC50 [4]: 2.15 µM (active)
- AC50 [5]: 2.33 µM (active)

Structure (SMILES): COc1cc2c(cc1OC)CN(c1ccc([N+](=O)[O-])c(C(F)(F)F)c1)CC2
- EC50 [6]: 43.1 µM (active)
- AC50 [7]: > 52 µM (inactive)
- AC50 [8]: > 52 µM (inactive)
- AC50 [9]: 29.6 µM (active)

Structure (SMILES): O=C1CC(N2CCN(S(=O)(=O)c3ccccc3)CC2)C(=O)N1c1ccccc1 (configuration not stated)
- IC50 [10]: 9.4 µM (not active)

Structure (SMILES): CC[n+]1ccccc1/C=C1\Sc2ccc(C)cc2N1C
- EC50 [11]: > 60 µM (not active)
- EC50 (cells): 0.022 µM (active)
- EC50 [12]: < 0.1 µM (active)

Structure (SMILES): CCOC(=O)CSc1nnc(CNC(=O)c2ccc(S(=O)(=O)N3CCCC3)cc2)n1C
- IC50 (Prothrombin): > 50 µM (not active)

Structure (SMILES): O=C(Nc1ccc2c(c1)OCO2)c1cc(-c2ccc(O)cc2)on1
- EC50 [13]: > 112 µM (not active)
- EC50 [11]: 6.74 µM (active)
- EC50 (cells): > 10 µM (not active)
- EC50 [12]: < 0.1 µM (active)
- EC50 (Kallikrein-7): 62.9 µM (inactive)
- IC50 [14]: > 66.6 µM (inactive)
- AC50 [15]: 0.356 µM (active)
- IC50 [16]: 11.5 µM (active)
- EC50 [17]: > 112 µM (not active)

Structure (SMILES): CC1=NN2C(=N)/C(=C\c3ccc(SCc4ccccc4)o3)C(=O)N=C2S1
- IC50 [18]: > 50 µM (not active)

Structure (SMILES): Clc1ccc(-c2cc(-c3ccccn3)on2)c(Cl)c1
- AC50 [7]: > 52 µM (inactive)
- IC50 (Protein skinhead-1): > 100 µM (inactive)
- AC50 [8]: > 52 µM (inactive)
- AC50 [9]: 3.73 µM (active)
- AC50 [19]: 7.08 µM (active)

Structure (SMILES): Cc1ccc(C)n1-c1ccc(-c2nnco2)cc1
- IC50 (Prothrombin): > 50 µM (not active)

Structure (SMILES): Cc1ccc(S(=O)(=O)N2CCN(Cc3nc(O)c4c(C)c(C)sc4n3)CC2)cc1
- IC50 [1]: > 100 µM (active)

Structure (SMILES): C=CCn1c(COc2ccccc2F)nnc1SCC(=O)NC(=O)NCc1ccco1
- IC50 (Estrogen receptor beta [20]): 3.27 µM (active)
- IC50 (Estrogen receptor beta [21]): > 50 µM (not active)
- IC50 [22]: 12.2 µM (active)

Structure (SMILES): CC1CCc2c(sc(NC(=O)c3ccc(Cn4cc([N+](=O)[O-])cn4)o3)c2C#N)C1 (configuration not stated)
- IC50 (Estrogen receptor beta [20]): 2.32 µM (active)
- IC50 (Estrogen receptor): 8.35 µM (active)
- IC50 (Estrogen receptor beta [21]): 11.1 µM (not active)
- IC50 [22]: 4.29 µM (active)

Structure (SMILES): Cc1cc(=O)[nH]c(SCC(=O)NCC2CCCO2)n1 (configuration not stated)
- IC50 (Prothrombin): > 50 µM (not active)

Structure (SMILES): O=c1c(Cl)c(N/N=C/c2ccc(Cl)cc2)cnn1-c1ccccc1
- IC50 [23]: 35 µM (inactive)
- IC50 [10]: 1.93 µM (active)
- EC50 (H4): > 120 µM (not active)
- IC50 [24]: > 80 µM (inactive)

Structure (SMILES): OC[C@H]1Nc2ccc(C#Cc3cccnc3)cc2[C@H]2NCC[C@H]21
- AC50 [2]: 8.84 µM (active)
- AC50 [3]: 11.2 µM (active)
- AC50 [4]: 7.59 µM (active)
- AC50 [5]: 1.08 µM (active)
